Experimental data reported in ChEMBL document CHEMBL4376833, “Influence of Non-natural Cationic Amino Acids on the Biological Activity Profile of Innate Defense Regulator Peptides” (J Med Chem, 2019).
The source made the active and inactive calls. No rule for the calls is given here. Non-standard residues stand in square brackets, D forms with d. Residues, ends and D or L forms follow the SMILES beside them. hArg = N=C(N)NCCCC[C@H](N)C(=O)O; Agb = N=C(N)NCC[C@H](N)C(=O)O; Orn = NCCC[C@H](N)C(=O)O; Dab = NCC[C@H](N)C(=O)O; Dap = NC[C@H](N)C(=O)O

Experiments:
Staphylococcus aureus [1] = test: Antibiofilm activity against methicillin-resistant Staphylococcus aureus assessed as inhibition of biofilm formation incubated for overnight by crystal violet staining based microtiter plate assay; format: functional, organism-based
Staphylococcus aureus [2] = test: Antibiofilm activity against methicillin-resistant Staphylococcus aureus assessed as inhibition of biofilm formation by measuring residual biofilm growth incubated for overnight at 10-fold dilution by crystal violet staining based microtiter plate assay relative to control; format: functional
Staphylococcus aureus [3] = test: Antibacterial activity against methicillin-resistant Staphylococcus aureus assessed as alteration in bacterial growth incubated for overnight by microtiter plate based spectrophotometric analysis; format: functional, organism-based

Row | Compound | inhibition (Staphylococcus aureus [1]) | residual biofilm growth (% of control) (Staphylococcus aureus [2]) | Activity (Staphylococcus aureus [3])
1 | CC[C@H](C)[C@H](NC(=O)[C@H](CCCNC(=N)N)NC(=O)[C@@H](NC(=O)[C@H](C)NC(=O)[C@@H](NC(=O)[C@@H](NC(=O)[C@H](CC(C)C)NC(=O)[C@H](CCCNC(=N)N)NC(=O)[C@@H](N)C(C)C)[C@@H](C)CC)C(C)C)C(C)C)C(=O)N[C@@H](Cc1c[nH]c2ccccc12)C(=O)N[C@@H](CCCNC(=N)N)C(=O)N[C@@H](CCNC(=N)N)C(N)=O (H-VRLIVAVRIWR[Agb]-NH2) | Dose-dependent effect | 39.9% | Active
2 | CC[C@H](C)[C@H](NC(=O)[C@H](CCCNC(=N)N)NC(=O)[C@@H](NC(=O)[C@H](C)NC(=O)[C@@H](NC(=O)[C@@H](NC(=O)[C@H](CC(C)C)NC(=O)[C@H](CCCNC(=N)N)NC(=O)[C@@H](N)C(C)C)[C@@H](C)CC)C(C)C)C(C)C)C(=O)N[C@@H](Cc1c[nH]c2ccccc12)C(=O)N[C@@H](CCCCNC(=N)N)C(=O)N[C@@H](CCCNC(=N)N)C(N)=O (H-VRLIVAVRIW[hArg]R-NH2) | Dose-dependent effect | 10.8% | Active
3 | CC[C@H](C)[C@H](NC(=O)[C@H](CCCNC(=N)N)NC(=O)[C@@H](NC(=O)[C@H](C)NC(=O)[C@@H](NC(=O)[C@@H](NC(=O)[C@H](CC(C)C)NC(=O)[C@H](CCCNC(=N)N)NC(=O)[C@@H](N)C(C)C)[C@@H](C)CC)C(C)C)C(C)C)C(=O)N[C@@H](Cc1c[nH]c2ccccc12)C(=O)N[C@@H](CN)C(=O)N[C@@H](CCCNC(=N)N)C(N)=O (H-VRLIVAVRIW[Dap]R-NH2) | Dose-dependent effect | 19.9% | Active
4 | H-VRLIVAVRKWRR-NH2 | Dose-dependent effect | 95.8% | Active
5 | H-VKLIVAVRIWRR-NH2 | Dose-dependent effect | 7.6% | Active
6 | CC[C@H](C)[C@H](NC(=O)[C@H](CC(C)C)NC(=O)[C@H](CCCNC(=N)N)NC(=O)[C@@H](N)C(C)C)C(=O)N[C@@H](CCN)C(=O)N[C@@H](C)C(=O)N[C@H](C(=O)N[C@@H](CCCNC(=N)N)C(=O)N[C@H](C(=O)N[C@@H](Cc1c[nH]c2ccccc12)C(=O)N[C@@H](CCCNC(=N)N)C(=O)N[C@@H](CCCNC(=N)N)C(N)=O)[C@@H](C)CC)C(C)C (H-VRLI[Dab]AVRIWRR-NH2) | Dose-dependent effect | 102.7% | Active
7 | CC[C@H](C)[C@H](NC(=O)[C@H](CCCNC(=N)N)NC(=O)[C@@H](NC(=O)[C@H](C)NC(=O)[C@@H](NC(=O)[C@@H](NC(=O)[C@H](CCCCNC(=N)N)NC(=O)[C@H](CCCNC(=N)N)NC(=O)[C@@H](N)C(C)C)[C@@H](C)CC)C(C)C)C(C)C)C(=O)N[C@@H](Cc1c[nH]c2ccccc12)C(=O)N[C@@H](CCCNC(=N)N)C(=O)N[C@@H](CCCNC(=N)N)C(N)=O (H-VR[hArg]IVAVRIWRR-NH2) | Dose-dependent effect | 108.6% | Active
8 | CC[C@H](C)[C@H](NC(=O)[C@H](CCCNC(=N)N)NC(=O)[C@@H](NC(=O)[C@H](C)NC(=O)[C@@H](NC(=O)[C@@H](NC(=O)[C@H](CC(C)C)NC(=O)[C@H](CCCNC(=N)N)NC(=O)[C@@H](N)C(C)C)[C@@H](C)CC)C(C)C)C(C)C)C(=O)N[C@@H](Cc1c[nH]c2ccccc12)C(=O)N[C@@H](CCCN)C(=O)N[C@@H](CCCNC(=N)N)C(N)=O (H-VRLIVAVRIW[Orn]R-NH2) | Dose-dependent effect | 12.3% | Active
9 | CC[C@H](C)[C@H](NC(=O)[C@H](CC(C)C)NC(=O)[C@H](CCCNC(=N)N)NC(=O)[C@@H](N)C(C)C)C(=O)N[C@@H](CCNC(=N)N)C(=O)N[C@@H](C)C(=O)N[C@H](C(=O)N[C@@H](CCCNC(=N)N)C(=O)N[C@H](C(=O)N[C@@H](Cc1c[nH]c2ccccc12)C(=O)N[C@@H](CCCNC(=N)N)C(=O)N[C@@H](CCCNC(=N)N)C(N)=O)[C@@H](C)CC)C(C)C (H-VRLI[Agb]AVRIWRR-NH2) | Dose-dependent effect | 103.2% | Active
10 | CC[C@H](C)[C@H](NC(=O)[C@H](CCCNC(=N)N)NC(=O)[C@@H](NC(=O)[C@H](C)NC(=O)[C@@H](NC(=O)[C@@H](NC(=O)[C@H](CCNC(=N)N)NC(=O)[C@H](CCCNC(=N)N)NC(=O)[C@@H](N)C(C)C)[C@@H](C)CC)C(C)C)C(C)C)C(=O)N[C@@H](Cc1c[nH]c2ccccc12)C(=O)N[C@@H](CCCNC(=N)N)C(=O)N[C@@H](CCCNC(=N)N)C(N)=O (H-VR[Agb]IVAVRIWRR-NH2) | Dose-dependent effect | 99.8% | Active
11 | CC[C@H](C)[C@H](NC(=O)[C@H](CC(C)C)NC(=O)[C@H](CCCNC(=N)N)NC(=O)[C@@H](N)C(C)C)C(=O)N[C@H](C(=O)N[C@@H](C)C(=O)N[C@H](C(=O)N[C@@H](CCCNC(=N)N)C(=O)N[C@@H](CCCN)C(=O)N[C@@H](Cc1c[nH]c2ccccc12)C(=O)N[C@@H](CCCNC(=N)N)C(=O)N[C@@H](CCCNC(=N)N)C(N)=O)C(C)C)C(C)C (H-VRLIVAVR[Orn]WRR-NH2) | Dose-dependent effect | 79.3% | Active
12 | CC[C@H](C)[C@H](NC(=O)[C@H](CCCNC(=N)N)NC(=O)[C@@H](NC(=O)[C@H](C)NC(=O)[C@@H](NC(=O)[C@@H](NC(=O)[C@H](CC(C)C)NC(=O)[C@H](CCCNC(=N)N)NC(=O)[C@@H](N)C(C)C)[C@@H](C)CC)C(C)C)C(C)C)C(=O)N[C@@H](CCCCNC(=N)N)C(=O)N[C@@H](CCCNC(=N)N)C(=O)N[C@@H](CCCNC(=N)N)C(N)=O (H-VRLIVAVRI[hArg]RR-NH2) | Dose-dependent effect | 37.2% | Active
13 | CC[C@H](C)[C@H](NC(=O)[C@H](CC(C)C)NC(=O)[C@H](CCCNC(=N)N)NC(=O)[C@@H](N)C(C)C)C(=O)N[C@H](C(=O)N[C@@H](C)C(=O)N[C@H](C(=O)N[C@@H](CCCNC(=N)N)C(=O)N[C@@H](CCNC(=N)N)C(=O)N[C@@H](Cc1c[nH]c2ccccc12)C(=O)N[C@@H](CCCNC(=N)N)C(=O)N[C@@H](CCCNC(=N)N)C(N)=O)C(C)C)C(C)C (H-VRLIVAVR[Agb]WRR-NH2) | Dose-dependent effect | 103.6% | Active
14 | CC[C@H](C)[C@H](NC(=O)[C@H](CCCNC(=N)N)NC(=O)[C@@H](NC(=O)[C@H](CCCN)NC(=O)[C@@H](NC(=O)[C@@H](NC(=O)[C@H](CC(C)C)NC(=O)[C@H](CCCNC(=N)N)NC(=O)[C@@H](N)C(C)C)[C@@H](C)CC)C(C)C)C(C)C)C(=O)N[C@@H](Cc1c[nH]c2ccccc12)C(=O)N[C@@H](CCCNC(=N)N)C(=O)N[C@@H](CCCNC(=N)N)C(N)=O (H-VRLIV[Orn]VRIWRR-NH2) | Dose-dependent effect | 14.2% | Active
15 | CC[C@H](C)[C@H](NC(=O)[C@H](CC(C)C)NC(=O)[C@H](CCCNC(=N)N)NC(=O)[C@@H](N)C(C)C)C(=O)N[C@@H](CCCN)C(=O)N[C@@H](C)C(=O)N[C@H](C(=O)N[C@@H](CCCNC(=N)N)C(=O)N[C@H](C(=O)N[C@@H](Cc1c[nH]c2ccccc12)C(=O)N[C@@H](CCCNC(=N)N)C(=O)N[C@@H](CCCNC(=N)N)C(N)=O)[C@@H](C)CC)C(C)C (H-VRLI[Orn]AVRIWRR-NH2) | Dose-dependent effect | 103% | Active
16 | CC[C@H](C)[C@H](NC(=O)[C@H](CCCNC(=N)N)NC(=O)[C@H](CCCCNC(=N)N)NC(=O)[C@H](C)NC(=O)[C@@H](NC(=O)[C@@H](NC(=O)[C@H](CC(C)C)NC(=O)[C@H](CCCNC(=N)N)NC(=O)[C@@H](N)C(C)C)[C@@H](C)CC)C(C)C)C(=O)N[C@@H](Cc1c[nH]c2ccccc12)C(=O)N[C@@H](CCCNC(=N)N)C(=O)N[C@@H](CCCNC(=N)N)C(N)=O (H-VRLIVA[hArg]RIWRR-NH2) | Dose-dependent effect | 107% | Active
17 | CC[C@H](C)[C@H](NC(=O)[C@H](CC(C)C)NC(=O)[C@H](CCCNC(=N)N)NC(=O)[C@@H](N)C(C)C)C(=O)N[C@H](C(=O)N[C@@H](C)C(=O)N[C@H](C(=O)N[C@@H](CCCNC(=N)N)C(=O)N[C@@H](CN)C(=O)N[C@@H](Cc1c[nH]c2ccccc12)C(=O)N[C@@H](CCCNC(=N)N)C(=O)N[C@@H](CCCNC(=N)N)C(N)=O)C(C)C)C(C)C (H-VRLIVAVR[Dap]WRR-NH2) | Dose-dependent effect | 51.8% | Active
18 | CC[C@H](C)[C@H](NC(=O)[C@H](CC(C)C)NC(=O)[C@H](CCCNC(=N)N)NC(=O)[C@@H](N)C(C)C)C(=O)N[C@@H](CCCCNC(=N)N)C(=O)N[C@@H](C)C(=O)N[C@H](C(=O)N[C@@H](CCCNC(=N)N)C(=O)N[C@H](C(=O)N[C@@H](Cc1c[nH]c2ccccc12)C(=O)N[C@@H](CCCNC(=N)N)C(=O)N[C@@H](CCCNC(=N)N)C(N)=O)[C@@H](C)CC)C(C)C (H-VRLI[hArg]AVRIWRR-NH2) | Dose-dependent effect | 110.4% | Active
19 | CC[C@H](C)[C@H](NC(=O)[C@H](CCCNC(=N)N)NC(=O)[C@H](CCN)NC(=O)[C@H](C)NC(=O)[C@@H](NC(=O)[C@@H](NC(=O)[C@H](CC(C)C)NC(=O)[C@H](CCCNC(=N)N)NC(=O)[C@@H](N)C(C)C)[C@@H](C)CC)C(C)C)C(=O)N[C@@H](Cc1c[nH]c2ccccc12)C(=O)N[C@@H](CCCNC(=N)N)C(=O)N[C@@H](CCCNC(=N)N)C(N)=O (H-VRLIVA[Dab]RIWRR-NH2) | Dose-dependent effect | 102.5% | Active
